Literature values in PMC2229313 (The Journal of General Physiology, 1996).

Tested on: IFM/QQQ mutant Na channel
Details: cytoplasmic application; ref Eaholtz et al., 1994

KIQMK
effect on kinetics of IFM/QQQ mutant Na currents: fails to affect the kinetics of the inactivation-impaired Na channel
